The record followed here is patent US12116356B2, “N-heterocyclic five-membered ring-containing capsid protein assembly inhibitor, pharmaceutical composition thereof, and use thereof” (CHIA TAI TIANQING PHARMACEUTICAL GROUP CO., LTD., priority 2018, dated 2024).

Series [1] can be described thus: Solubility in PBS buffer at pH 7.4. Conditions: aqueous buffer, PBS buffer pH 7.4, 25° C. The series is classed as physicochemical. The method, then: […] After standing at 25° C. for 16 hours, the system was centrifugated (12000 rpm, room temperature) for 10 min. 20 μL of the supernatant was taken out, and the reaction was terminated with 400 μL of acetonitrile containing an internal standard (diazepam 20 ng/mL). 30 μL of the supernatant was pipetted, and 150 μL of 50% acetonitrile aqueous solution was added thereto for dilution and mixed uniformly. 0.5 μL of the resulting solution was injected for analysis.

Series [2] can be described thus: In vivo pharmacokinetics (PK) study in mice. Conditions: ICR mice, po 30 mg/kg. As for the experimental part: ICR mice, weighing 18-20 g, were randomly divided into groups of three mice each after 3 to 5 days' acclimatization, and a series of the compounds were administered intragastrically to each group at a dose of 30 mg/kg. The test animals (ICR mice) were fasted for 12 hours before the administration and fed 4 hours after the administration. They were free to access water before and after the experiment. After the intragastric administration, about 0.1 mL of blood was collected from the orbits. Within 30 minutes after anticoagulation with EDTA-K2, the plasma was separated by centrifugation at 4° C. and 4000 rpm for 10 minutes. Immediately after collecting all plasma, it was stored at −20° C. for testing. 20 μL of the plasma sample to be tested and standard curve sample were pipetted, and then thereto was added 200 μL of an acetonitrile solution containing an internal standard (diazepam 20 mg/mL). The resulting mixture was oscillated and mixed uniformly for 5 min, and then centrifugated at 12000 rpm for 10 min. 75 μL supernatant was pipetted, and 75 μL ultrapure water was added thereto for dilution, and mixed evenly. 1 μL of the resulting solution was pipetted for LC/MS/MS determination.

Converted amounts (≈) assume the structure as drawn.

As to `Cc1c(C(=O)Nc2ccc(F)c(C#N)c2)c(C)n(C)c1C(=O)C(=O)N[C@@H](C)C(F)(F)F` [Example 12], the solubility (commonly the concentration that dissolves in the medium under given conditions) at 16 h in series [1] turned out to be 8.1 µM (≈ 3.55 µg/mL).

Turning to `Cc1c(C(=O)Nc2ccc(F)c(C#N)c2)c(C)n(C)c1C(=O)C(=O)NC1(C(F)(F)F)COC1` [Example 25, N-(3-cyano-4-fluorophenyl)-1,2,4-trimethyl-5-(2-oxo-2-((3-(trifluoromethyl)oxetan-3-yl)amino)acetyl)-1H-pyrrole-3-carboxamide], the “Liver AUC(0-8 h)” value in series [2] (0.25 h, 3 h, 8 h) is 315435 ng/g. In addition, the “Plasma AUC(0-8 h)” value in series [2] (blood at 0.25 h, 3 h, 8 h) is given as 37732 ng/mL. Further, the Kp in series [2] (mouse, liver/blood, AUC(0-8 h), read-out: Liver to blood ratio) is 8.36.
